Data from patent publication US20260283996A1, “DECANOIC ACID AND ITS COMPOSITIONS FOR USE IN THE PREVENTION AND/OR TREATMENT OF PEROXISOMAL DISORDERS” (SOCIÉTÉ DES PRODUITS NESTLÉ S.A., priority 2023, published 2026).

Legend:
Type in all cases: cell-based
acyl CoA oxidase = acyl CoA oxidase activity in SH-SY5Y cells; settings: 250 μM, 6 days (FIG. 1A)
Experimental: (§1) SH-SY5Y cells were stored frozen and cells with passage numbers between 20 and 24 were utilized. When required, SH-SY5Y cells were thawed at 20-25° C. and quickly seeded at a density of 13.3×10^3 cell/cm^2 in 75 cm^2 flasks. SH-SY5Y cells were then grown in media containing 1:1 DMEM/F-12+100 mL/L FBS+10 mL/L I-glutamine at +37° C. and 5% CO2. SH-SY5Y cells were exposed to 250 μM decanoic acid (C10) or octanoic acid (C8) for 6 days.
(§2) To assess effects upon peroxisomal content and function, the following parameters were studied; (a) activity of the peroxisomal marker enzyme, acyl CoA oxidase, (b) expression of Pex11a, a gene associated with peroxisomal biogenesis and (c) evaluation of peroxisomal fatty acid beta oxidation by monitoring the chain shortening of a very long chain fatty acid, C22, to C18, C16 and C14.

SH-SY5Y cells = test: peroxisomal fatty acid beta oxidation (chain shortening of C22 to C18, C16 and C14) in SH-SY5Y cells; settings: 250 μM, 6 days, chain shortening of C22 to C18, C16 and C14 (FIG. 1C)
Experimental: as §1, §2

Pex11a = test: expression of Pex11a in SH-SY5Y cells; settings: 250 μM, 6 days (FIG. 1B)
Experimental: as §1, §2

CCCCCCCCCC(=O)O [C10, Decanoic acid]
acyl CoA oxidase activity (acyl CoA oxidase): increase in acyl CoA oxidase activity
capacity to perform peroxisomal beta oxidation (SH-SY5Y cells): increased capacity to perform peroxisomal beta oxidation
Pex11a expression (Pex11a): increased Pex11a
